Read-outs that look alike come from different tables or passages of the source.
What was measured:
Type in all cases: cell-based
MRC5 = experiment: Anti-proliferation assay, MRC5 (normal)
Procedure: (§1) Cells were maintained in a 1:1 mixture of Advanced DMEM/F12 (Gibco) supplemented with non-essential amino acids, L-glutamine (2 mM), streptomycin (500 μg/mL), penicillin (100 units/mL), and 10% FBS. Cells were grown to confluence in a humidified atmosphere (37° C., 5% CO2), seeded (2000/well, 100 μL) in 96-well plates, and allowed to attach overnight. Compound at varying concentrations in DMSO (1% DMSO final concentration) was added, and cells were returned to the incubator for 72 h. At 72 h, the number of viable cells was determined using an MTS/PMS cell proliferation kit (Promega) per the manufacturer's instructions. Cells incubated in 1% DMSO were used at 100% proliferation, and values were adjusted accordingly. IC50 values were calculated from separate experiments performed in triplicate using GraphPad Prism.

HMLE = experiment: Anti-proliferation assay, HMLE (normal)
Procedure: as §1

MDAMB231 = experiment: Anti-proliferation assay, MDAMB231; conditions: Tri-Neg
Procedure: as §1

DRO81-1 = experiment: Anti-proliferation assay, DRO81-1; conditions: Thyroid
Procedure: as §1

HCT-116 = experiment: Anti-proliferation assay, HCT-116
Procedure: as §1

[1] = system: MCF-7 (estrogen receptor positive breast cancer cells); experiment: Anti-proliferation assay (MTS/PMS, 72 h), MCF-7
Procedure: as §1
(§2) The anti-proliferative activity of these compounds is evaluated against two breast cancer cell lines, SKBr3 (estrogen receptor negative, Her2 over-expressing breast cancer cells) and MCF-7 (estrogen receptor positive breast cancer cells).

[2] = system: SKBr3 (estrogen receptor negative, Her2 over-expressing breast cancer cells); experiment: Anti-proliferation assay (MTS/PMS, 72 h), SKBr3
Procedure: as §1, §2

MDA1986 = experiment: Anti-proliferation assay, MDA1986; conditions: HSNCC
Procedure: as §1

JMAR = experiment: Anti-proliferation assay, JMAR; conditions: HSNCC
Procedure: as §1

PC-3 = experiment: Anti-proliferation assay, PC-3; conditions: Prostate Cancer
Procedure: as §1

A-549 = experiment: Anti-proliferation assay, A-549
Procedure: as §1

[3] = Homo sapiens, MDA-MB-231, Table 6, substituted phenyl ureas
[4] = Table 6, substituted phenyl ureas
[5] = Homo sapiens, HCT-116, Table 6, substituted phenyl ureas
[6] = Homo sapiens, MCF7, Table 6, substituted phenyl ureas, Breast Cancer, read-out: IC50 MCF-3
[7] = Homo sapiens, SK-BR-3, Table 6, substituted phenyl ureas, Breast Cancer, read-out: IC50 SKBr3
[8] = Homo sapiens, MRC5, Table 6, substituted phenyl ureas
[9] = HMLE, Table 6, substituted phenyl ureas
[10] = MDA1986, Table 6, substituted phenyl ureas
[11] = JMAR, Table 6, substituted phenyl ureas
[12] = Homo sapiens, PC-3, Table 6, substituted phenyl ureas
[13] = Homo sapiens, A549, Table 6, substituted phenyl ureas
[14] = Table 9, non-aryl ureas, Breast Cancer, read-out: IC50 MCF-3
[15] = Table 9, non-aryl ureas, Breast Cancer, read-out: IC50 SKBr3

IC50 (MDAMB231; [3]) [µM] | IC50 [1, 6] [µM] | IC50 [2, 7] [µM] | IC50 (PC-3; [12]) [µM] | IC50 (A-549; [13]) [µM] | SMILES | IC50 (MRC5; Table 9, non-aryl ureas) [µM] | IC50 (HMLE; Table 9, non-aryl ureas) [µM] | IC50 (DRO81-1; [4]) [µM] | IC50 (MRC5; [8]) [µM] | IC50 (HMLE; [9]) [µM] | IC50 (MDA1986; [10]) [µM] | IC50 (JMAR; [11]) [µM] | other results
 |  |  |  |  | Cc1c(OC2CCN(C)CC2)ccc2cc(NC(=O)N3CCN(C)CC3)c(=O)oc12 [drawing 171] | > 25 | > 25 |  |  |  |  |  | 
 |  |  |  |  | Cc1c(OC2CCN(C)CC2)ccc2cc(NC(=O)N(Cc3ccccc3)Cc3ccccc3)c(=O)oc12 [drawing 174] | 20.9 | 7.1 |  |  |  |  |  | 
> 25 | 0.36 | 0.17 | 2.3 | 0.16 | Cc1c(OC2CCN(C)CC2)ccc2cc(NC(=O)Nc3ccc(Cl)cc3)c(=O)oc12 [p-Cl, 1-(4-chlorophenyl)-3-(8-methyl-7-((1-methylpiperidin-4-yl)oxy)-2-oxo-2H-chromen-3-yl)urea] |  |  | 15.8 | > 25 | > 25 | > 25 | 6.1 | IC50 (HCT-116; [5]): 0.42 µM
 |  |  |  |  | Cc1c(OC2CCN(C)CC2)ccc2cc(NC(=O)NC3CCCCC3)c(=O)oc12 [drawing 155] |  |  |  |  |  |  |  | IC50 (MDAMB231; Table 9, non-aryl ureas): > 25 µM; IC50 (DRO81-1; Table 9, non-aryl ureas): > 25 µM; IC50 (HCT-116; Table 9, non-aryl ureas): 9.21 ± 6.54 µM; IC50 [1, 14]: 3.84 ± 0.31 µM; IC50 [2, 15]: 3.83 ± 0.33 µM; IC50 (MDA1986; Table 9, non-aryl ureas): > 25 µM; IC50 (JMAR; Table 9, non-aryl ureas): > 25 µM; IC50 (PC-3; Table 9, non-aryl ureas): 1.67 µM; IC50 (A-549; Table 9, non-aryl ureas): > 100 µM
0.43 | 0.47 | 0.35 | 0.06 | 0.13 | Cc1c(OC2CCN(C)CC2)ccc2cc(NC(=O)Nc3ccc(C(F)(F)F)cc3)c(=O)oc12 [p-CF3, 1-(8-methyl-7-((1-methylpiperidin-4-yl)oxy)-2-oxo-2H-chromen-3-yl)-3-(4-(trifluoromethyl)phenyl)urea] |  |  | 0.64 | 3.1 | 15.5 | 0.9 | 3.6 | IC50 (HCT-116; [5]): 0.8 µM
0.28 | 0.28 | 0.19 | 2.16 | 1.02 | Cc1c(OC2CCN(C)CC2)ccc2cc(NC(=O)Nc3cccc(Oc4ccccc4)c3)c(=O)oc12 [m-phenoxyl, 1-(8-methyl-7-((1-methylpiperidin-4-yl)oxy)-2-oxo-2H-chromen-3-yl)-3-(3-phenoxyphenyl)urea] |  |  | 3.1 | 2.2 | 5.2 | 0.57 | 2.4 | 
 |  |  |  |  | Cc1c(OC2CCN(C)CC2)ccc2cc(NC(=O)N(C)Cc3ccccc3)c(=O)oc12 [drawing 173] | > 25 | > 25 |  |  |  |  |  | 
0.57 | 0.52 | 0.3 | 1.82 | 0.063 | Cc1c(OC2CCN(C)CC2)ccc2cc(NC(=O)Nc3cccc(Cl)c3)c(=O)oc12 [m-Cl, 1-(3-chlorophenyl)-3-(8-methyl-7-((1-methylpiperidin-4-yl)oxy)-2-oxo-2H-chromen-3-yl)urea] |  |  | 3.8 | 3.1 | 22 | 1.7 | 1.7 | IC50 (HCT-116; [5]): 0.22 µM
2.4 | 0.96 | 0.86 | 0.52 | 1.09 | COc1ccc(NC(=O)Nc2cc3ccc(OC4CCN(C)CC4)c(C)c3oc2=O)cc1 [p-OCH3, 1-(4-methoxyphenyl)-3-(8-methyl-7-((1-methylpiperidin-4-yl)oxy)-2-oxo-2H-chromen-3-yl)urea] |  |  | 29 | 2.7 | 0.74 | 2.6 | 8.4 | IC50 (HCT-116; [5]): 0.25 µM
 |  |  |  |  | Cc1c(OC2CCN(C)CC2)ccc2cc(NC(=O)NC34CC5CC(CC(C5)C3)C4)c(=O)oc12 [drawing 169] | 3.8 | > 25 |  |  |  |  |  | 
 |  |  |  |  | Cc1c(OC2CCN(C)CC2)ccc2cc(NC(=O)NC3CCCCC3)c(=O)oc12 [drawing 168] | > 25 | > 25 |  |  |  |  |  | 
2.6 | 1.11 | 3.79 | 0.27 | 0.43 | Cc1ccc(NC(=O)Nc2cc3ccc(OC4CCN(C)CC4)c(C)c3oc2=O)c(C)c1 [2,4-dimethyl, 1-(2,4-dimethylphenyl)-3-(8-methyl-7-((1-methylpiperidin-4-yl)oxy)-2-oxo-2H-chromen-3-yl)urea] |  |  | 2.3 | 3.6 | > 25 | 1.9 | 1.1 | IC50 (HCT-116; [5]): 0.77 µM
 |  |  |  |  | Cc1c(OC2CCN(C)CC2)ccc2cc(NC(=O)NC(C)(C)C)c(=O)oc12 [drawing 170] | 21.1 | > 25 |  |  |  |  |  | 
0.55 | 0.28 | 0.26 | 0.043 | 0.046 | Cc1c(OC2CCN(C)CC2)ccc2cc(NC(=O)Nc3cccc(C(F)(F)F)c3)c(=O)oc12 [m-CF3, 1-(8-methyl-7-((1-methylpiperidin-4-yl)oxy)-2-oxo-2H-chromen-3-yl)-3-(3-(trifluoromethyl)phenyl)urea] |  |  | 7.3 | 1.6 | 16.8 | 0.15 | 1.7 | 
 |  |  |  |  | CC(=O)c1ccc(NC(=O)Nc2cc3ccc(OC4CCN(C)CC4)c(C)c3oc2=O)cc1 [p-COCH3] |  |  | 13.3 |  |  |  |  | IC50 (MDAMB231; [4]): 0.75 µM; IC50 (HCT-116; [4]): 0.25 µM; IC50 ([1]; Table 6, substituted phenyl ureas, Breast Cancer, read-out: IC50 MCF-3): 1.72 µM; IC50 ([2]; Table 6, substituted phenyl ureas, Breast Cancer, read-out: IC50 SKBr3): 1.52 µM; IC50 (MRC5; [4]): 7.7 µM; IC50 (HMLE; [4]): 8 µM; IC50 (MDA1986; [4]): 3.4 µM; IC50 (JMAR; [4]): 11.9 µM; IC50 (PC-3; [4]): 2.75 µM; IC50 (A-549; [4]): 0.24 µM
3.6 | 0.49 | 0.51 | 0.16 | 0.2 | Cc1c(OC2CCN(C)CC2)ccc2cc(NC(=O)Nc3cc(Cl)cc(Cl)c3)c(=O)oc12 [3,5-dichloro, 1-(3,5-dichlorophenyl)-3-(8-methyl-7-((1-methylpiperidin-4-yl)oxy)-2-oxo-2H-chromen-3-yl)urea] |  |  | 0.77 | > 25 | > 25 | 7.5 | 6.2 | IC50 (HCT-116; [5]): 1.21 µM
 |  |  |  |  | Cc1c(OC2CCN(C)CC2)ccc2cc(NC(=O)NC3CCCC3)c(=O)oc12 [drawing 167] | > 25 | > 25 |  |  |  |  |  | 
 |  |  |  |  | Cc1c(OC2CCN(C)CC2)ccc2cc(NC(=O)NCc3ccccc3)c(=O)oc12 [drawing 172] | 20.9 | > 25 |  |  |  |  |  | 
 |  |  |  |  | Cc1c(OC2CCN(C)CC2)ccc2cc(NC(=O)NC3CCCC3)c(=O)oc12 [drawing 154] |  |  |  |  |  |  |  | IC50 (MDAMB231; Table 9, non-aryl ureas): 0.65 µM; IC50 (DRO81-1; Table 9, non-aryl ureas): 8.8 µM; IC50 (HCT-116; Table 9, non-aryl ureas): 7.87 ± 7.97 µM; IC50 [1, 14]: 3.83 ± 0.33 µM; IC50 [2, 15]: 2.39 ± 0.35 µM; IC50 (MDA1986; Table 9, non-aryl ureas): > 25 µM; IC50 (JMAR; Table 9, non-aryl ureas): > 25 µM; IC50 (PC-3; Table 9, non-aryl ureas): 2.16 ± 1.17 µM; IC50 (A-549; Table 9, non-aryl ureas): 1.24 ± 0.94 µM
 |  |  |  |  | Cc1c(OC2CCN(C)CC2)ccc2cc(NC(=O)NC(c3ccccc3)c3ccccc3)c(=O)oc12 [drawing 175] | 15.5 | 1.6 |  |  |  |  |  | 
 |  |  |  |  | Cc1c(OC2CCN(C)CC2)ccc2cc(NC(=O)NC34CC5CC(CC(C5)C3)C4)c(=O)oc12 [drawing 156] |  |  |  |  |  |  |  | IC50 (MDAMB231; Table 9, non-aryl ureas): 3 µM; IC50 (DRO81-1; Table 9, non-aryl ureas): 18.7 µM; IC50 (HCT-116; Table 9, non-aryl ureas): 0.082 ± 0.035 µM; IC50 (MDA1986; Table 9, non-aryl ureas): 5.9 µM; IC50 (JMAR; Table 9, non-aryl ureas): 6.2 µM; IC50 (PC-3; Table 9, non-aryl ureas): 0.019 ± 0.003 µM; IC50 (A-549; Table 9, non-aryl ureas): 0.01 ± 0.01 µM
 |  |  |  |  | CC(C)=CCc1cc(C(=O)Nc2cc3ccc(OCCCNC4CCCCC4)c(C)c3oc2=O)ccc1O [Compound 70a, N-(7-(3-(cyclohexylamino)propoxy)-8-methyl-2-oxo-2H-chromen-3-yl)-4-hydroxy-3-(3-methylbut-2-en-1-yl)benzamide] |  |  |  |  |  |  |  | IC50 ([1]; Homo sapiens, MCF7, Table 5, alkylether derivatives with cyclic N-substitutions, read-out: MCF-7): 1.07 ± 0.35 µM; IC50 ([2]; Homo sapiens, SK-BR-3, Table 5, alkylether derivatives with cyclic N-substitutions, read-out: SKBr3): 0.66 ± 0.12 µM

Source: patent publication US10030006B2, “Coumarin based Hsp90 inhibitors with urea and ether substituents” (University of Kansas, priority 2013, dated 2018)
